Measurements published in ChEMBL document CHEMBL5303573, “Mapping human microbiome drug metabolism by gut bacteria and their genes” (Nature, 2019).

Assays:
[1] = The drug is tested on Bifidobacterium breve strain: DSM20213 for biotransformation. The drug concentrations were measured before and after a 12-h incubation by liquid-chromatography-coupled mass spectrometry (LC–MS); settings: 2 µM
[2] = The drug is tested on Collinsella aerofaciens strain: ATCC25986 for biotransformation. The drug concentrations were measured before and after a 12-h incubation by liquid-chromatography-coupled mass spectrometry (LC–MS); settings: 2 µM
[3] = The drug is tested on Alistipes indistinctus strain: DSM22520 for biotransformation. The drug concentrations were measured before and after a 12-h incubation by liquid-chromatography-coupled mass spectrometry (LC–MS); settings: 2 µM
[4] = The drug is tested on Bacteroides cellulosilyticus strain: DSM14838 for biotransformation. The drug concentrations were measured before and after a 12-h incubation by liquid-chromatography-coupled mass spectrometry (LC–MS); settings: 2 µM
[5] = The drug is tested on Bacteroides fragilis strain: HMW610 for biotransformation. The drug concentrations were measured before and after a 12-h incubation by liquid-chromatography-coupled mass spectrometry (LC–MS); settings: 2 µM
[6] = The drug is tested on Anaerotruncus colihominis strain: DSM17241 for biotransformation. The drug concentrations were measured before and after a 12-h incubation by liquid-chromatography-coupled mass spectrometry (LC–MS); settings: 2 µM
[7] = The drug is tested on Clostridium scindens strain: ATCC35704 for biotransformation. The drug concentrations were measured before and after a 12-h incubation by liquid-chromatography-coupled mass spectrometry (LC–MS); settings: 2 µM
[8] = The drug is tested on Clostridium sporogenes strain: ATCC15579 for biotransformation. The drug concentrations were measured before and after a 12-h incubation by liquid-chromatography-coupled mass spectrometry (LC–MS); settings: 2 µM
[9] = The drug is tested on Enterococcus faecalis strain: V583 for biotransformation. The drug concentrations were measured before and after a 12-h incubation by liquid-chromatography-coupled mass spectrometry (LC–MS); settings: 2 µM
[10] = The drug is tested on Edwardsiella tarda strain: ATCC23685 for biotransformation. The drug concentrations were measured before and after a 12-h incubation by liquid-chromatography-coupled mass spectrometry (LC–MS); settings: 2 µM
[11] = The drug is tested on Enterobacter cancerogenus strain: ATCC35316 for biotransformation. The drug concentrations were measured before and after a 12-h incubation by liquid-chromatography-coupled mass spectrometry (LC–MS); settings: 2 µM
[12] = bifidobacterium adolescentis, 12 h, 2 µM
Description: The drug is tested on Bifidobacterium adolescentis strain: ATCC 15703 for biotransformation. The drug concentrations were measured before and after a 12-h incubation by liquid-chromatography-coupled mass spectrometry (LC–MS)

[13] = bacteroides fragilis, 12 h, 2 µM
Description: The drug is tested on Bacteroides fragilis strain: NCTC 9343 for biotransformation. The drug concentrations were measured before and after a 12-h incubation by liquid-chromatography-coupled mass spectrometry (LC–MS)

[14] = bacteroides fragilis, 12 h, 2 µM; remark: listed apart in the source
Description: The drug is tested on Bacteroides fragilis strain: 3397 (T10) for biotransformation. The drug concentrations were measured before and after a 12-h incubation by liquid-chromatography-coupled mass spectrometry (LC–MS)

[15] = bacteroides thetaiotaomicron, 12 h, 2 µM
Description: The drug is tested on Bacteroides thetaiotaomicron strain: VPI-5482 for biotransformation. The drug concentrations were measured before and after a 12-h incubation by liquid-chromatography-coupled mass spectrometry (LC–MS)

[16] = bacteroides thetaiotaomicron, 12 h, 2 µM; remark: listed apart in the source
Description: The drug is tested on Bacteroides thetaiotaomicron strain: 7330 for biotransformation. The drug concentrations were measured before and after a 12-h incubation by liquid-chromatography-coupled mass spectrometry (LC–MS)

[17] = segatella copri, 12 h, 2 µM
Description: The drug is tested on Prevotella copri strain: DSM18205 for biotransformation. The drug concentrations were measured before and after a 12-h incubation by liquid-chromatography-coupled mass spectrometry (LC–MS)

[18] = anaerostipes sp., 12 h, 2 µM
Description: The drug is tested on Anaerostipes sp. strain: fecal isolate for biotransformation. The drug concentrations were measured before and after a 12-h incubation by liquid-chromatography-coupled mass spectrometry (LC–MS)

[19] = limosilactobacillus reuteri cf48-3a, 12 h, 2 µM
Description: The drug is tested on Lactobacillus reuteri CF48-3A strain: BEI HM-102 for biotransformation. The drug concentrations were measured before and after a 12-h incubation by liquid-chromatography-coupled mass spectrometry (LC–MS)

[20] = roseburia intestinalis, 12 h, 2 µM
Description: The drug is tested on Roseburia intestinalis strain: L1-82 for biotransformation. The drug concentrations were measured before and after a 12-h incubation by liquid-chromatography-coupled mass spectrometry (LC–MS)

COC1=C(OC)C(=O)C(CCCCCCCCCCO)=C(C)C1=O [IDEBENONE]
Bacterial Biotransformation [1]: Compound NOT metabolized
Bacterial Biotransformation [2]: Compound NOT metabolized
Bacterial Biotransformation [3]: Compound metabolized
Bacterial Biotransformation [4]: Compound NOT metabolized
Bacterial Biotransformation [5]: Compound metabolized
Bacterial Biotransformation [6]: Compound NOT metabolized
Bacterial Biotransformation [7]: Compound metabolized
Bacterial Biotransformation [8]: Compound metabolized
Bacterial Biotransformation [9]: Compound NOT metabolized
Bacterial Biotransformation [10]: Compound NOT metabolized
Bacterial Biotransformation [11]: Compound NOT metabolized
Bacterial Biotransformation [12]: Compound NOT metabolized
Bacterial Biotransformation [13]: Compound metabolized
Bacterial Biotransformation [14]: Compound metabolized
Bacterial Biotransformation [15]: Compound NOT metabolized
Bacterial Biotransformation [16]: Compound NOT metabolized
Bacterial Biotransformation [17]: Compound NOT metabolized
Bacterial Biotransformation [18]: Compound metabolized
Bacterial Biotransformation [19]: Compound NOT metabolized
Bacterial Biotransformation [20]: Compound NOT metabolized

COc1ccc2c(c1)c(CC(=O)O)c(C)n2C(=O)c1ccc(Cl)cc1 [INDOMETHACIN]
Bacterial Biotransformation [1]: Compound NOT metabolized
Bacterial Biotransformation [2]: Compound NOT metabolized
Bacterial Biotransformation [3]: Compound metabolized
Bacterial Biotransformation [4]: Compound metabolized
Bacterial Biotransformation [5]: Compound NOT metabolized
Bacterial Biotransformation [6]: Compound NOT metabolized
Bacterial Biotransformation [7]: Compound NOT metabolized
Bacterial Biotransformation [8]: Compound NOT metabolized
Bacterial Biotransformation [9]: Compound NOT metabolized
Bacterial Biotransformation [10]: Compound NOT metabolized
Bacterial Biotransformation [11]: Compound NOT metabolized
Bacterial Biotransformation [12]: Compound NOT metabolized
Bacterial Biotransformation [13]: Compound metabolized
Bacterial Biotransformation [14]: Compound metabolized
Bacterial Biotransformation [15]: Compound metabolized
Bacterial Biotransformation [16]: Compound metabolized
Bacterial Biotransformation [17]: Compound metabolized
Bacterial Biotransformation [18]: Compound metabolized
Bacterial Biotransformation [19]: Compound metabolized
Bacterial Biotransformation [20]: Compound metabolized

CCc1nn(CCCN2CCN(c3cccc(Cl)c3)CC2)c(=O)n1CCOc1ccccc1 [NEFAZODONE]
Bacterial Biotransformation [1]: Compound NOT metabolized
Bacterial Biotransformation [2]: Compound NOT metabolized
Bacterial Biotransformation [3]: Compound NOT metabolized
Bacterial Biotransformation [4]: Compound NOT metabolized
Bacterial Biotransformation [5]: Compound NOT metabolized
Bacterial Biotransformation [6]: Compound NOT metabolized
Bacterial Biotransformation [7]: Compound NOT metabolized
Bacterial Biotransformation [8]: Compound NOT metabolized
Bacterial Biotransformation [9]: Compound NOT metabolized
Bacterial Biotransformation [10]: Compound NOT metabolized
Bacterial Biotransformation [11]: Compound NOT metabolized
Bacterial Biotransformation [12]: Compound NOT metabolized
Bacterial Biotransformation [13]: Compound NOT metabolized
Bacterial Biotransformation [14]: Compound NOT metabolized
Bacterial Biotransformation [15]: Compound NOT metabolized
Bacterial Biotransformation [16]: Compound NOT metabolized
Bacterial Biotransformation [17]: Compound NOT metabolized
Bacterial Biotransformation [18]: Compound NOT metabolized
Bacterial Biotransformation [19]: Compound NOT metabolized
Bacterial Biotransformation [20]: Compound NOT metabolized

Cc1ccc(S(=O)(=O)NC(=O)NN2CC3CCCC3C2)cc1 (stereo not given) [GLICLAZIDE]
Bacterial Biotransformation [1]: Compound NOT metabolized
Bacterial Biotransformation [2]: Compound NOT metabolized
Bacterial Biotransformation [3]: Compound NOT metabolized
Bacterial Biotransformation [4]: Compound NOT metabolized
Bacterial Biotransformation [5]: Compound metabolized
Bacterial Biotransformation [6]: Compound NOT metabolized
Bacterial Biotransformation [7]: Compound NOT metabolized
Bacterial Biotransformation [8]: Compound NOT metabolized
Bacterial Biotransformation [9]: Compound NOT metabolized
Bacterial Biotransformation [10]: Compound NOT metabolized
Bacterial Biotransformation [11]: Compound NOT metabolized
Bacterial Biotransformation [12]: Compound NOT metabolized
Bacterial Biotransformation [13]: Compound NOT metabolized
Bacterial Biotransformation [14]: Compound metabolized
Bacterial Biotransformation [15]: Compound NOT metabolized
Bacterial Biotransformation [16]: Compound NOT metabolized
Bacterial Biotransformation [17]: Compound NOT metabolized
Bacterial Biotransformation [18]: Compound NOT metabolized
Bacterial Biotransformation [19]: Compound NOT metabolized
Bacterial Biotransformation [20]: Compound NOT metabolized

COc1ccccc1N1CCN(CC(O)COc2cccc3ccccc23)CC1 (stereo not given) [NAFTOPIDIL]
Bacterial Biotransformation [1]: Compound NOT metabolized
Bacterial Biotransformation [2]: Compound NOT metabolized
Bacterial Biotransformation [3]: Compound NOT metabolized
Bacterial Biotransformation [4]: Compound NOT metabolized
Bacterial Biotransformation [5]: Compound metabolized
Bacterial Biotransformation [6]: Compound NOT metabolized
Bacterial Biotransformation [7]: Compound NOT metabolized
Bacterial Biotransformation [8]: Compound NOT metabolized
Bacterial Biotransformation [9]: Compound NOT metabolized
Bacterial Biotransformation [10]: Compound NOT metabolized
Bacterial Biotransformation [11]: Compound NOT metabolized
Bacterial Biotransformation [12]: Compound NOT metabolized
Bacterial Biotransformation [13]: Compound NOT metabolized
Bacterial Biotransformation [14]: Compound NOT metabolized
Bacterial Biotransformation [15]: Compound NOT metabolized
Bacterial Biotransformation [16]: Compound NOT metabolized
Bacterial Biotransformation [17]: Compound NOT metabolized
Bacterial Biotransformation [18]: Compound NOT metabolized
Bacterial Biotransformation [19]: Compound NOT metabolized
Bacterial Biotransformation [20]: Compound NOT metabolized

O=C1NCC2(CCN(CCc3ccccc3)CC2)O1 [FENSPIRIDE]
Bacterial Biotransformation [1]: Compound NOT metabolized
Bacterial Biotransformation [2]: Compound NOT metabolized
Bacterial Biotransformation [3]: Compound NOT metabolized
Bacterial Biotransformation [4]: Compound NOT metabolized
Bacterial Biotransformation [5]: Compound metabolized
Bacterial Biotransformation [6]: Compound NOT metabolized
Bacterial Biotransformation [7]: Compound NOT metabolized
Bacterial Biotransformation [8]: Compound NOT metabolized
Bacterial Biotransformation [9]: Compound NOT metabolized
Bacterial Biotransformation [10]: Compound NOT metabolized
Bacterial Biotransformation [11]: Compound NOT metabolized
Bacterial Biotransformation [12]: Compound NOT metabolized
Bacterial Biotransformation [13]: Compound metabolized
Bacterial Biotransformation [14]: Compound metabolized
Bacterial Biotransformation [15]: Compound metabolized
Bacterial Biotransformation [16]: Compound metabolized
Bacterial Biotransformation [17]: Compound metabolized
Bacterial Biotransformation [18]: Compound NOT metabolized
Bacterial Biotransformation [19]: Compound NOT metabolized
Bacterial Biotransformation [20]: Compound NOT metabolized

C[C@H]1O[C@@H](O[C@H]2[C@@H](O)C[C@H](O[C@H]3[C@@H](O)C[C@H](O[C@H]4CC[C@@]5(C)[C@H](CC[C@@H]6[C@@H]5C[C@@H](O)[C@]5(C)[C@@H](C7=CC(=O)OC7)CC[C@]65O)C4)O[C@@H]3C)O[C@@H]2C)C[C@H](O)[C@@H]1O [DIGOXIN]
Bacterial Biotransformation [1]: Compound NOT metabolized
Bacterial Biotransformation [2]: Compound NOT metabolized
Bacterial Biotransformation [3]: Compound NOT metabolized
Bacterial Biotransformation [4]: Compound NOT metabolized
Bacterial Biotransformation [5]: Compound metabolized
Bacterial Biotransformation [6]: Compound NOT metabolized
Bacterial Biotransformation [7]: Compound NOT metabolized
Bacterial Biotransformation [8]: Compound NOT metabolized
Bacterial Biotransformation [9]: Compound NOT metabolized
Bacterial Biotransformation [10]: Compound NOT metabolized
Bacterial Biotransformation [11]: Compound NOT metabolized
Bacterial Biotransformation [12]: Compound NOT metabolized
Bacterial Biotransformation [13]: Compound NOT metabolized
Bacterial Biotransformation [14]: Compound metabolized
Bacterial Biotransformation [15]: Compound metabolized
Bacterial Biotransformation [16]: Compound metabolized
Bacterial Biotransformation [17]: Compound NOT metabolized
Bacterial Biotransformation [18]: Compound NOT metabolized
Bacterial Biotransformation [19]: Compound NOT metabolized
Bacterial Biotransformation [20]: Compound NOT metabolized
